Laboratory results taken from the NIST ThermoML archive (doi:10.1016/j.jct.2015.08.033).

Test: mn = molality of the nth substance listed, in mol/kg
Details: 100 kPa, Liquid; for speed of sound: Frequency=3 MHz, Sing-around technique in a fixed-path interferometer; for mass density: Vibrating tube method

O=S(=O)([O-])C(F)(F)F.O=S(=O)([O-])C(F)(F)F.[Ca+2] [calcium trifluoromethanesulfonate] + CC(=O)N(C)C
Details | mass density, 298.15 K [kg/m3] | mass density, 303.15 K [kg/m3] | mass density, 308.15 K [kg/m3] | mass density, 313.15 K [kg/m3] | mass density, 318.15 K [kg/m3] | speed of sound, 298.15 K [m/s] | speed of sound, 303.15 K [m/s] | speed of sound, 308.15 K [m/s] | speed of sound, 313.15 K [m/s] | speed of sound, 318.15 K [m/s]
m1 = 0.02187 | 940.927 | 936.332 | 931.736 | 927.121 | 922.5 | 1457 | 1437.3 | 1417.6 | 1398 | 1378.6
m1 = 0.03271 | 943.201 | 938.61 | 934.019 | 929.41 | 924.794 | 1457.4 | 1437.8 | 1418.2 | 1398.7 | 1379.3
m1 = 0.04637 | 946.038 | 941.451 | 936.856 | 932.246 | 927.636 | 1458 | 1438.5 | 1419 | 1399.4 | 1380
m1 = 0.06551 | 949.951 | 945.373 | 940.788 | 936.196 | 931.596 | 1458.5 | 1439 | 1419.5 | 1400.2 | 1380.9
m1 = 0.08271 | 953.447 | 948.878 | 944.3 | 939.716 | 935.124 | 1459 | 1439.6 | 1420.2 | 1400.9 | 1381.7
m1 = 0.1052 | 957.976 | 953.415 | 948.847 | 944.27 | 939.688 | 1459.6 | 1440.3 | 1421 | 1401.8 | 1382.7
m1 = 0.1305 | 963.026 | 958.471 | 953.91 | 949.342 | 944.771 | 1460.3 | 1441 | 1421.8 | 1402.7 | 1383.7
m1 = 0.1577 | 968.401 | 963.856 | 959.304 | 954.745 | 950.183 | 1460.9 | 1441.8 | 1422.7 | 1403.7 | 1384.8
m1 = 0.1977 | 976.212 | 971.679 | 967.14 | 962.594 | 958.045 | 1461.8 | 1442.8 | 1423.9 | 1405 | 1386.2

O=S(=O)([O-])C(F)(F)F.O=S(=O)([O-])C(F)(F)F.[Ca+2] [calcium trifluoromethanesulfonate] + CN(C)C=O
Details | mass density, 298.15 K [kg/m3] | mass density, 303.15 K [kg/m3] | mass density, 308.15 K [kg/m3] | mass density, 313.15 K [kg/m3] | mass density, 318.15 K [kg/m3] | speed of sound, 298.15 K [m/s] | speed of sound, 303.15 K [m/s] | speed of sound, 308.15 K [m/s] | speed of sound, 313.15 K [m/s] | speed of sound, 318.15 K [m/s]
m1 = 0.01106 | 946.239 | 941.472 | 936.692 | 931.892 | 927.09 | 1457.3 | 1438.1 | 1418.8 | 1399.6 | 1380.3
m1 = 0.01878 | 947.845 | 943.075 | 938.305 | 933.505 | 928.705 | 1457.4 | 1438.2 | 1418.9 | 1399.7 | 1380.6
m1 = 0.02772 | 949.696 | 944.925 | 940.169 | 935.363 | 930.568 | 1457.4 | 1438.3 | 1419 | 1399.9 | 1380.8
m1 = 0.03952 | 952.113 | 947.355 | 942.581 | 937.793 | 932.985 | 1457.4 | 1438.3 | 1419.2 | 1400.1 | 1381.1
m1 = 0.05628 | 955.509 | 950.747 | 945.976 | 941.193 | 936.398 | 1457.5 | 1438.3 | 1419.2 | 1400.2 | 1381.2
m1 = 0.06961 | 958.2 | 953.444 | 948.677 | 943.893 | 939.103 | 1457.3 | 1438.3 | 1419.3 | 1400.3 | 1381.4
m1 = 0.08918 | 962.098 | 957.344 | 952.579 | 947.802 | 943.015 | 1457.1 | 1438.2 | 1419.2 | 1400.3 | 1381.5
m1 = 0.1114 | 966.493 | 961.744 | 956.98 | 952.205 | 947.419 | 1456.8 | 1438 | 1419.1 | 1400.3 | 1381.6
m1 = 0.1344 | 971.012 | 966.262 | 961.501 | 956.728 | 951.947 | 1456.6 | 1437.8 | 1419 | 1400.3 | 1381.6
m1 = 0.1671 | 977.356 | 972.601 | 967.839 | 963.068 | 958.29 | 1456.4 | 1437.6 | 1418.8 | 1400.2 | 1381.6
